Patent publication US7851471B2, “Compounds I” (AstraZeneca AB (PUBL), priority 2007, dated 2010)

Experiments:
[1] = test system: JEG-3 cells (choriocarcinoma cell line); conditions: Biol. Reprod. (2007) 76: 203-10; cited from earlier work
[2] = test system: JEG-3 cells (choriocarcinoma cell line); assay: Leptin assay in non-recombinant system: [3H]-thymidine incorporation / proliferation of JEG-3 cells; assay type: cell-based
Description: In JEG-3 cells (choriocarcinoma cell line) leptin is able to stimulate proliferation up to 3 fold (Biol. Reprod. (2007) 76: 203-10). […] The radioactivity incorporated by the cells is an index of their proliferative activity and is measured in counts per minute (CPM) with a liquid scintillation beta counter.
This finding can be applied to test whether a compound is able to either reproduce the effect of leptin on cell proliferation (leptin receptor agonist mimetic) (i.e., a given compound will cause an increase in incorporated [^3H]-Thymidine by the cells) or to inhibit the effect of leptin (antagonistic effect) by preventing the leptin-mediated increase in [H]-thymidine incorporation.

Question: Which results are given for “Leptin: a hormone synthesized in fat cells that is believed to act in the hypothalamus to reduce food intake and body weight”?
Answer: stimulation of proliferation [1]: up to 3 fold; concentration giving maximal effect on [3H]-thymidine incorporation ([2]; FIG. 5): 100 nM; EC50 ([2]; FIG. 5, read-out: concentration-dependent increase in [3H]-thymidine incorporation, EC50): 2.1 nM
